Assay results: patent publication US20250212873A1, “VOLATILE HDAC INHIBITORS FOR THERAPEUTIC AND PLANT APPLICATIONS” (The Regents of the University of California, priority 2022, published 2025)
“Also recorded” adds a separate entry of the source. Counter-ions that a name gives are not always drawn.

Legend:
[1] = system: Arabidopsis thaliana seedlings; test: Odor Exposure assay, Arabidopsis thaliana seedlings (root and leaf development); type: in vivo; conditions: for lateral root growth (number of lateral roots) / leaf development (number of large / true leaves) / root growth (primary root length): 7-day exposure; for lateral root growth (number of lateral roots) / leaf development (number of large / true leaves) / root growth: headspace of 1% v/v in Paraffin oil; for root growth (primary root length): headspace of solution in Paraffin oil; for root growth: 3.5-day exposure
Experimental: The Odor Exposure assay consists of controlled exposure of volatile odor compounds to model plant Arabidopsis within enclosed aquariums and similar growth conditions (23° C. with a 12-hour light/dark cycle). For Arabidopsis, seedlings were aligned on agar plates for growth after a 4-day cold treatment process. The agar plates with seedlings were then placed in enclosed aquariums with moist paper towels soaked in 10 ml of DI water for humidity. The plates were placed along the wall, approximately 12 cm from odor dispensers which resided in the center of the glass tank.
The test compound odor dispensers, consisting of (60×15 mm) polystyrene Petri dishes containing 2 ml of 1% v/v in PO, are replaced at the 3.5, 5, and 6-day time mark during the 7-day experiment. Root growth is marked during each time mark and the plates were imaged. The plants are to be collected after the 7-day exposure, photographed, and the leaves/roots carefully dissected separated, flash frozen in liquid nitrogen, and preserved for future sequencing. Root growth is measured using ImageJ.
In order to study the physiological effects of long-term exposure to microbial volatiles the model system Arabidopsis was exposed for […] to diacetyl, a volatile chemical emitted by fermentation by yeast or microbial degradation in the soil associated with roots (R. J. Morcillo et al., EMBO J 39, e102602 (2020); M. A. Farag, et al., Phytochemistry 67, 2262-2268 (2006); and C. M. Ryu et al., P Natl Acad Sci USA 100, 4927-4932 (2003). The Odor Exposure assay consisted of controlled exposure of volatile HDAC inhibiting compounds to model plant Arabidopsis within enclosed aquariums and similar growth conditions. The test compound odor cartridges, consisting of 60×15 mm polystyrene Petri dishes containing 2 ml of indicated concentration in Paraffin Oil, were replaced at the 3.5, 5, and 6-day time mark during the 7-day experiment (FIG. 1A, left). In separate experiments the weight loss from the odor cartridges over time was measured and used it to calculate the concentration of diacetyl in the glass chambers in parts per million (FIG. 1A, right).
In order to directly evaluate whether exposure to vapors of the four HDAC-inhibitory VOCs affect root development, we performed a set of experiments using A. thaliana seedlings as before. Solutions for each of the four chemicals on a small petri dish were placed away from the seedlings growing in agar plate and enclosed in glass tank. The Root tips were marked at specified days post treatment start and photographs analyzed. The plants were collected after the 7-day exposure, photographed, and the roots were separated. Detailed measurements were made from the photos using ImageJ and the root length and numbers of lateral roots quantified at day 3.5 and day 7 after start if the treatment (FIG. 1B).
The Odor Exposure assay consists of controlled exposure of volatile odor compounds to model plant Arabidopsis within enclosed aquariums and similar growth conditions (23° C. with a 12-hour light/dark cycle). The test compound odor cartridges, consisting of (60×15 mm) polystyrene Petri dishes containing 2 ml of 1% v/v in paraffin oil (PO), were replaced at the 3.5, 5, and 6-day time mark during the 7-day experiment. Root growth was marked during each time point and the plates were imaged. Numbers of true leaves were also counted. The plants are to be collected after the 7-day exposure, photographed, and the leaves/roots carefully dissected separated, flash frozen in liquid nitrogen, and preserved for future sequencing. Root growth is measured using ImageJ.

[2] = system: A. thaliana plants (Col-0); test: Flowering assay; type: in vivo, Arabidopsis thaliana; conditions: vapors from 0.1% solution
Text: Dramatic effects of VOCs have been seen in the seedling stage. The effects on with flowering timing were observed, since the process involves numerous changes in gene expression and therefore potentially susceptible to HDAC inhibitory volatiles. Mutants in HDACs like HDA5 show delayed flowering due to upregulation of flowering repressor genes like FLC and MAF1 (M. Luo et al., Plant J 82, 925-936 (2015)). Conversely, mutants in HDA9lead to early flowering due to increased expression of FLOWERING LOCUS T (FT) and AGAMOUS-LIKE 19 (AGL19) (M. J. Kang, et al., New Phytol 206, 281-294 (2015)). We placed 3 weeks old A. thaliana plants in the glass chambers and exposed them to the vapors of two of the VOCs, diacetyl and α-angelica lactone volatilizing from 0.1% solutions in the glass chamber.
Twenty-seven day old A. thaliana plants (Col-0), that had been transplanted at day 7 to soil, were placed in 10-gallon glass aquarium as chamber along with a petridish containing 2 ml of chemical dissolved in PO or PO alone were placed at the other side of the container. Plants were exposed to odors until all plants began to flower, with odor cartridges being replaced daily. Signs of flower buds opening were counted as plant flowering. One-way analysis of Variance (ANOVA) between groups was performed for plant exposure quantitative data using Graph Pad Prism 9.

[3] = system: Class I and Class II HDACs; test: In vitro assays with purified human Class I and II HDACs (panel statements); type: biochemical; conditions: 15 mM
Experimental: Presented are data for selected compounds that act as Histone deacetylase inhibitors in vitro or HDAC inhibitors. 26 compounds were screened against purified human HDACs.
HDAC activity of class I HDACs (HDAC1 and 3) was measured with the fluorometric HDAC Activity Assay kit: HDAC1 (10011563, Cayman Chemical, Ann Arbor, MI) and HDAC3 (50073 BPS Bioscience, San Diego, CA), according to the manufacturer's instructions. HDAC activity of class II HDACs (HDAC4 and HDAC6) was measured with the fluorometric HDAC Activity Assay kit: HDAC4, […] (50064 and 50076, BPS Bioscience, San Diego, CA), according to the manufacturer's instructions. All compounds were tested in single dose duplicate mode at 15 mM concentrations in 1% DMSO, based on the IC50 of 2,3-butanedione established in earlier work. Due to interference, concentrations of >30 mM were not used in the IC50 calculation. To account for any interference at lower concentrations, all baseline measurements of blank wells (no HDAC enzyme) were performed and subtracted with the various concentrations of 2,3-butanedione.
Diacetyl and 3 structurally related VOCs were evaluated using in vitro assay kits for measuring activity of four purified HDACs. Of the four VOCs), each has a different functional group, two are natural in origin, previously detected from microbes that are known to be present in soil (M. C. Lemfack et al., Nucleic Acids Res 46, D1261-D1265 (2018); and R. H. Cagan, W. N. Zeiger, Proc. Nat. Acad. Sci. U.S.A. 75, 4679-4683 (1978)) and two that are not (α-angelica lactone and ethyl pyruvate). […] All 4 VOCs inhibited both Class I HDACs (L. L. Walling, The Myriad Plant Responses to Herbivores. J Plant Growth Regul 19, 195-216 (2000); and M. Heil, R. Karban, Trends Ecol Evol 25, 137-144 (2010)) and the Class II HDAC6 with differences in degree (FIG. 2A,B).

SH-SY5Y Cancer cell line = test: Cancer cell viability assay, SH-SY5Y; type: cell-based; conditions: 33 micro-molar
Experimental: (§1) Cells were maintained in a 37° C. incubator with 5% CO2 throughout the experiment. Compound stocks were dissolved in 10% DMSO, but final concentrations were made fresh in complete media as needed. 10% DMSO solvent was used as control in complete media. Cells were seeded onto 12-well plates and allowed 12-24 hours until treatment began to allow cells to adhere to wells. This was followed by minimum 5-day treatment of compounds, changing the media with treatment every 48 hours. Cell lines A549, PC3, and SK-MEL-5 were seeded at 8000 cells/well which would provide 80-100% confluency after 6-day growth. SH-SY5Y was seeded at 8000 cells/well then 16,000 cells/well due to slower growth and given at least 10 days for sufficient growth. After allotted growth times, cell counts were performed via Countess™ automated cell counter. All assays were completed with a minimum of triplicate replicates for all conditions and analyzed through GraphPad Prism One-way ANOVA for significance.

PC3 Cancer cell line = test: Cancer cell viability assay, PC3; type: cell-based; conditions: 33 uM, triplicates
Experimental: as §1

bacteria and fungi = conditions: literature (Debebe et al.); cited from earlier work
[4] = system: A. thaliana plants (Col-0); test: Weed killing assay; type: in vivo, Arabidopsis thaliana; conditions: 1% (volume/volume) in PO, 7 days vapor exposure, 4 weeks recovery
Text: Since large scale changes in gene expression occur it is presumed that higher doses of some of the compounds could negatively affect some plants, even causing death. Since Arabidopsis thaliana is also considered a type of weed and goes by the common name Thale cress, it was used as a model to test the weed killing potential at higher doses. In order to evaluate the activity of some of these volatiles in plant killing twenty-seven day old A. thaliana plants (Col-0), that had been transplanted at day 7 to soil, were placed in 10-gallon glass aquarium as chamber along with a petridish containing 2 ml of chemical dissolved in PO at 1% (volume/volume) or PO alone were placed at the other side of the container. Plants were exposed to odor vapors for 7 days and observed for death.
Twenty-seven day old A. thaliana plants (Col-0), that had been transplanted at day 7 to soil, were placed in 10-gallon glass aquarium as chamber along with a petridish containing 2 ml of chemical dissolved in PO at 1% (volume/volume) or PO alone were placed at the other side of the container. Plants were exposed to odor vapors for 7 days and observed for death.

[5] = system: histone deacetylase enzymes (HDACs); conditions: literature (Shimazu et al.); cited from earlier work
[6] = listed as Alpha angelica lactone

SMILES: CCC(=O)C(=O)CC [3,4-hexanedione]
- lateral root growth (number of lateral roots) [1]: significant phenotypic changes; also recorded: promoted lateral root growth
- leaf development (number of large / true leaves) [1]: changes in the number of true leaf development/growth; also recorded: significant increase; also recorded: significant phenotypic changes; also recorded: The trend for the compounds were to inhibit leave development, except for 3,4-hexanedione
- root growth (primary root length) [1]: all the compounds except 3,4-hexanedione demonstrated significant root growth inhibition

SMILES: CC1=CCC(=O)O1 [alpha angelica lactone]
- root growth [1]: significant root growth inhibition
- lateral root growth (number of lateral roots) [1, 6]: significant phenotypic changes; also recorded: promoted lateral root growth
- leaf development (number of large / true leaves) [1, 6]: significant phenotypic changes
- leaf development (number of large / true leaves) ([1]; listed as a-angelica lactone): significant decreases
- leaf development (number of large / true leaves) ([1]; listed as α-Angelica lactone): changes in the number of true leaf development/growth
- delay in flowering (in words) [2]: approximately a week
- inhibition of Class II HDACs compared with Class I [3]: inhibits only Class 2 HDACs strongly
- inhibition of Class II HDACs compared with Class I ([3]; listed as α-angelica lactone): inhibited Class II HDACs more strongly than Class I

SMILES: CCOC(=O)C(C)=O [ethyl pyruvate]
- changes in proliferation, SH-SY5Y (SH-SY5Y Cancer cell line): Significant changes in proliferations were noted only for 33 micro molar 2,3-butanedione treatment
- changes in proliferation, PC3 (PC3 Cancer cell line): No Significant changes in proliferations
- root growth [1]: significant root growth inhibition
- lateral root growth (number of lateral roots) [1]: inhibition; also recorded: significant phenotypic changes
- lateral root growth (number of lateral roots) ([1]; listed as Ethyl pyruvate): inhibited
- root growth (primary root length) [1]: inhibited
- antimicrobial action on bacteria and fungi (bacteria and fungi): potent antimicrobial

SMILES: CCCOC=O [propyl formate]
- changes in proliferation, SH-SY5Y (SH-SY5Y Cancer cell line): Significant changes in proliferations were noted only for 33 micro molar 2,3-butanedione treatment
- changes in proliferation, PC3 (PC3 Cancer cell line): No Significant changes in proliferations
- plants killed (dead) [4]: 7 of 8

SMILES: CC(O)CC(=O)O (stereo not drawn) [β-hydroxybutyrate]
- inhibition of histone deacetylase enzymes (HDACs) [5]: known inhibitor
